Test results: ChEMBL document CHEMBL2203018, “Tyrosine urea muscarinic acetylcholine receptor antagonists: achiral quaternary ammonium groups” (Bioorg Med Chem Lett, 2012)
pIC50: −log10 of the molar value.

Assays:
Mus musculus [1] = experiment: Inhibition of methacholine-induced bronchoconstriction in Balb/c mouse at 5 ug administered intranasally after 24 hrs; assay type: functional
Mus musculus [2] = experiment: Inhibition of methacholine-induced bronchoconstriction in Balb/c mouse at 5 ug administered intranasally after 48 hrs; assay type: functional
Mus musculus [3] = experiment: Inhibition of methacholine-induced bronchoconstriction in Balb/c mouse at 5 ug administered intranasally after 5 hrs; assay type: functional
[4] = target: T1, Muscarinic acetylcholine receptor M2 (Homo sapiens, UniProt P08172); experiment: Antagonist activity at human muscarinic M2 receptor expressed in CHO cells assessed as inhibition of acetylcholine-induced calcium mobilization by FLIPR assay; assay type: functional, cell-based
T1 sequence (P08172 whole entry): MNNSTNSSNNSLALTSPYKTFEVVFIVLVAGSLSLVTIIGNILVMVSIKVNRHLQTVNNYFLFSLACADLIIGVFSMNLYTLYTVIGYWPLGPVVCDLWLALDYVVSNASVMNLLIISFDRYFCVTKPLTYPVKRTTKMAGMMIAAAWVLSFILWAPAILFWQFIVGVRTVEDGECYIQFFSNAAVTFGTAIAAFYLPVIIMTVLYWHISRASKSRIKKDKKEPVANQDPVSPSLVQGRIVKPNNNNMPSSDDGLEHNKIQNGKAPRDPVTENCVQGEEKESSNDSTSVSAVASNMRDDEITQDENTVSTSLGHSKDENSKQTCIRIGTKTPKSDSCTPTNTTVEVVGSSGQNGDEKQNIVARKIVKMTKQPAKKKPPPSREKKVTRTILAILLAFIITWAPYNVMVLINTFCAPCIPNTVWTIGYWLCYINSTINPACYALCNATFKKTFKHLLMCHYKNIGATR

[5] = target: Muscarinic acetylcholine receptor M3 (Homo sapiens, UniProt P20309); experiment: Antagonist activity at human muscarinic M3 receptor expressed in CHO cells assessed as inhibition of acetylcholine-induced calcium mobilization by FLIPR assay; assay type: functional, cell-based
[6] = target: T2, Muscarinic acetylcholine receptor M1 (Homo sapiens, UniProt P11229); experiment: Antagonist activity at human muscarinic M1 receptor expressed in CHO cells assessed as inhibition of acetylcholine-induced calcium mobilization by FLIPR assay; assay type: functional, cell-based
T2 sequence (P11229 whole entry): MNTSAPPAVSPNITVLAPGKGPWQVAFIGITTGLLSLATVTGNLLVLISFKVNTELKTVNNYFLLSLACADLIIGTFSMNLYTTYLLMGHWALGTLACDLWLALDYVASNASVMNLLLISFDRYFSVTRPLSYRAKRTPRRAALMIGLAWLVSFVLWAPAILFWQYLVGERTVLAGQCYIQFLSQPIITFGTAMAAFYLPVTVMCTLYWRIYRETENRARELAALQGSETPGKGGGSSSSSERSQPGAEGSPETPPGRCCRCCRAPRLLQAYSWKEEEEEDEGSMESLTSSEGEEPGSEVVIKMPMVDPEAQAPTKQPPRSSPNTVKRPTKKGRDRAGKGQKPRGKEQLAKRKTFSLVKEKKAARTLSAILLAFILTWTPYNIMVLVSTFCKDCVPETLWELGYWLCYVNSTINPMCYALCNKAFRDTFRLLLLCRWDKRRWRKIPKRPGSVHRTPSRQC

Chain of Muscarinic acetylcholine receptor M3 (P20309 whole entry): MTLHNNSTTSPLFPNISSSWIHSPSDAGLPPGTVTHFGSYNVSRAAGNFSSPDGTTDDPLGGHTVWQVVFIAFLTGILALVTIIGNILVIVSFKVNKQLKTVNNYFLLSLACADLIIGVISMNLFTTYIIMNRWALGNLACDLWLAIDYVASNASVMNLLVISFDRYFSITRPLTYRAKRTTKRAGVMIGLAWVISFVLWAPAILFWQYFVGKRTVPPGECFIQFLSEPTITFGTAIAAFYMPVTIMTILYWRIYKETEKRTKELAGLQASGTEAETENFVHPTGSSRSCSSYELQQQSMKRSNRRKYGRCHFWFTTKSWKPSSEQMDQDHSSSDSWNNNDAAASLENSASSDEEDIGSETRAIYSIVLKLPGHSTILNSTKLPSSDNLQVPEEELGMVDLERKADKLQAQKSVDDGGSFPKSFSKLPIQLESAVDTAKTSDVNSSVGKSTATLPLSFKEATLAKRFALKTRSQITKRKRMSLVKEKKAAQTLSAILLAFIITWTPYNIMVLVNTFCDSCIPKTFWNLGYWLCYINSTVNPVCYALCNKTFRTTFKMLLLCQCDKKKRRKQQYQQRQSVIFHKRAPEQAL

| Compound | pIC50 [4] | pIC50 [5] | pIC50 [6] | inhibition (INH) (Mus musculus [1]) | inhibition (INH) (Mus musculus [2]) | inhibition (INH) (Mus musculus [3]) |
| --- | --- | --- | --- | --- | --- | --- |
| CC(C)OC(=O)c1ccc(NC(=O)N[C@@H](Cc2ccc(O)cc2)C(=O)N[C@H]2CCC[N+](C)(Cc3ccc(Cl)cc3)C2)cc1 (some centres undefined) | – | – | – | 38% | 0% | 94% |
| Cc1c[n+]2cc(CNC(=O)[C@H](Cc3ccc(O)cc3)NC(=O)Nc3ccc(C(=O)OC(C)C)cc3)n(Cc3ccc(C(F)(F)F)cc3)c2s1.O=C([O-])C(F)(F)F | – | – | – | 12% | – | 89% |
| CC(C)OC(=O)c1ccc(NC(=O)N[C@@H](Cc2ccc(O)cc2)C(=O)NCCC[N+](C)(C)Cc2ccc(Cl)cc2)cc1 | 6.75 | 6.70 | 6.12 | – | – | – |
| CC(C)OC(=O)c1ccc(NC(=O)N[C@@H](Cc2ccc(O)cc2)C(=O)NCC(C)(C)C[N+](C)(C)Cc2ccc(Cl)cc2)cc1 | 7.06 | > 8.30 | 6.32 | – | – | – |
| CC(C)OC(=O)c1ccc(NC(=O)N[C@@H](Cc2ccc(O)cc2)C(=O)N2CC[N+](Cc3ccc(Cl)cc3)(C(C)C)CC2)cc1 | 7.01 | 7.56 | 6.05 | – | – | – |
| CC(C)OC(=O)c1ccc(NC(=O)N[C@@H](Cc2ccc(O)cc2)C(=O)N2CC[N+](Cc3ccc(Cl)cc3)(CC3CCCCC3)CC2)cc1 | 7.23 | > 8.30 | 6.85 | – | – | – |
| CC(C)OC(=O)c1ccc(NC(=O)N[C@@H](Cc2ccc(O)cc2)C(=O)N2CC[N+](Cc3ccc(Cl)cc3)(CC3CCc4ccccc4C3)CC2)cc1 (some centres undefined) | 7.39 | > 8.30 | 6.33 | – | – | – |
| CC(C)OC(=O)c1ccc(NC(=O)N[C@@H](Cc2ccc(O)cc2)C(=O)N(C)Cc2n(C)cc[n+]2Cc2ccc(Cl)cc2)cc1 | 6.00 | 6.41 | < 5.48 | – | – | – |
| Cc1csc2n(Cc3ccc(Cl)cc3)c(CNC(=O)[C@H](Cc3ccc(O)cc3)NC(=O)Nc3ccc(C(=O)OC(C)C)cc3)c[n+]12 | > 8.30 | > 8.30 | > 8.30 | – | – | – |
| Cc1c[n+]2cc(CNC(=O)[C@H](Cc3ccc(O)cc3)NC(=O)Nc3ccc(C(=O)OC(C)C)cc3)n(C)c2s1 | > 8.30 | > 8.30 | > 8.30 | – | – | – |
| CC(C)OC(=O)c1ccc(NC(=O)N[C@@H](Cc2ccc(O)cc2)C(=O)N2CCC[C@H]([N+](C)(C)Cc3ccc(Cl)cc3)C2)cc1 | 6.98 | 7.34 | 5.95 | – | – | – |
| CC[N+]1(C2CCN(C(=O)[C@H](Cc3ccc(O)cc3)NC(=O)Nc3ccc(C(=O)OC(C)C)cc3)CC2)CCCC1 | 6.26 | 6.24 | < 5.48 | – | – | – |
| CC(C)OC(=O)c1ccc(NC(=O)N[C@@H](Cc2ccc(O)cc2)C(=O)NCC[N+](C)(Cc2ccc(Cl)cc2)Cc2ccc(Cl)cc2)cc1 | 6.39 | 7.15 | 6.42 | – | – | – |
| CC[N+](CC)(CCNC(=O)[C@H](Cc1ccc(O)cc1)NC(=O)Nc1ccc(C(=O)OC(C)C)cc1)Cc1ccc(Cl)cc1 | 6.51 | 6.65 | 6.23 | – | – | – |
| CC(C)OC(=O)c1ccc(NC(=O)N[C@@H](Cc2ccc(O)cc2)C(=O)NCC[N+](C)(Cc2ccc3ccccc3c2)Cc2ccc3ccccc3c2)cc1 | 7.82 | 7.09 | 6.02 | – | – | – |
| CC(C)OC(=O)c1ccc(NC(=O)N[C@@H](Cc2ccc(O)cc2)C(=O)NCC[N+](C)(C)C23CC4CC(CC(C4)C2)C3)cc1 | 7.88 | 8.21 | 7.88 | – | – | – |
| CC(C)OC(=O)c1ccc(NC(=O)N[C@@H](Cc2ccc(O)cc2)C(=O)NCC[N+]2(Cc3ccc(Cl)cc3)CCCC2)cc1 | 6.97 | 7.35 | 6.38 | – | – | – |
| CC(C)OC(=O)c1ccc(NC(=O)N[C@@H](Cc2ccc(O)cc2)C(=O)NCC[N+]2(Cc3ccc(Cl)cc3)CCCCC2)cc1 | 7.08 | 7.48 | 6.70 | – | – | – |
| CC(C)OC(=O)c1ccc(NC(=O)N[C@@H](Cc2ccc(O)cc2)C(=O)N(CC[N+](C)(C)C)Cc2ccccc2)cc1 | < 5.48 | < 5.48 | < 5.48 | – | – | – |
| CC(C)OC(=O)c1ccc(NC(=O)N[C@@H](Cc2ccc(O)cc2)C(=O)NCCC[N+](C)(C)Cc2ccc3ccccc3c2)cc1 | 6.39 | 6.38 | 6.13 | – | – | – |
| Cc1cn2cc(CNC(=O)[C@H](Cc3ccc(O)cc3)NC(=O)Nc3ccc(C(=O)OC(C)C)cc3)[n+](Cc3ccc4ccccc4c3)c2s1.O=C([O-])C(F)(F)F | – | – | – | – | 69% | 78% |

Continued, in another order:

| pIC50 [4] | pIC50 [5] | pIC50 [6] | Compound | inhibition (INH) (Mus musculus [1]) | inhibition (INH) (Mus musculus [2]) | inhibition (INH) (Mus musculus [3]) |
| --- | --- | --- | --- | --- | --- | --- |
| 6.37 | 7.99 | < 5.48 | CC(C)OC(=O)c1ccc(NC(=O)N[C@@H](Cc2ccc(O)cc2)C(=O)N2CC[N+](C)(Cc3ccc4c(c3)OCO4)CC2)cc1 | – | – | – |
| 6.72 | 7.30 | 5.60 | CC(C)OC(=O)c1ccc(NC(=O)N[C@@H](Cc2ccc(O)cc2)C(=O)N2CC[N+](C)(CC3CCCCC3)CC2)cc1 | – | – | – |
| 6.07 | > 8.30 | 5.87 | CC(C)OC(=O)c1ccc(NC(=O)N[C@@H](Cc2ccc(O)cc2)C(=O)N2CC[N+](C)(CCc3ccccc3)CC2)cc1 | – | – | – |
| < 5.48 | < 5.48 | < 5.48 | CC(C)OC(=O)c1ccc(NC(=O)N[C@@H](Cc2ccc(O)cc2)C(=O)N(C)Cc2n(C)cc[n+]2C)cc1 | – | – | – |
| 6.74 | 7.28 | 6.49 | CC(C)OC(=O)c1ccc(NC(=O)N[C@@H](Cc2ccc(O)cc2)C(=O)NCc2n(Cc3ccc(Cl)cc3)cc[n+]2Cc2ccc(Cl)cc2)cc1 | – | – | – |
| > 8.30 | > 8.30 | > 8.30 | Cc1csc2n(C)c(CNC(=O)[C@H](Cc3ccc(O)cc3)NC(=O)Nc3ccc(C(=O)OC(C)C)cc3)c[n+]12 | – | – | – |
| 7.02 | 7.16 | 6.05 | CC(C)OC(=O)c1ccc(NC(=O)N[C@@H](Cc2ccc(O)cc2)C(=O)N2CCC([N+]3(Cc4ccc(Cl)cc4)CCCC3)CC2)cc1 | – | – | – |
| 6.26 | 6.85 | 5.84 | CC(C)OC(=O)c1ccc(NC(=O)N[C@@H](Cc2ccc(O)cc2)C(=O)NCC[N+](C)(C)Cc2ccc(Cl)cc2)cc1 | – | – | – |
| 6.48 | 6.80 | < 5.48 | CC(C)OC(=O)c1ccc(NC(=O)N[C@@H](Cc2ccc(O)cc2)C(=O)NCC[N+]2(C)CCCCCC2)cc1 | – | – | – |
| 6.47 | 6.63 | < 5.48 | CC(C)OC(=O)c1ccc(NC(=O)N[C@@H](Cc2ccc(O)cc2)C(=O)NCC[N+](C)(C(C)C)C(C)C)cc1 | – | – | – |
| 6.08 | 7.88 | 5.72 | CC(C)OC(=O)c1ccc(NC(=O)N[C@@H](Cc2ccc(O)cc2)C(=O)N2CCC[C@@H]([N+](C)(C)Cc3ccc(Cl)cc3)C2)cc1 | – | – | – |
